Experimental data as given in patent US11787766B2, “Compound having PD-L1 inhibitory activity, preparation method therefor and use thereof” (SHANGHAI ENNOVABIO PHARMACEUTICALS CO., LTD., priority 2017, dated 2023).

Target: PD-L1 (Homo sapiens (Human), UniProt Q9NZQ7)
Assay: PD-1/PD-L1 homogeneous time-resolved fluorescence (HTRF) binding assay
Conditions: Cisbio PD1/PD-L1 binding assay kit
Description: PD-1/PD-L1 homogeneous time-resolved fluorescence (HTRF) detection technology was used to detect the binding ability of the compound to PD-L1.
PD1/PD-L1 binding assay kit (Cisbio, Cat #63ADK000CPDEC) was used, which includes two proteins, Tag 1-PD-L1 and Tag 2-PD-1, and two antibodies, Anti-Tag1-Eu^3+ and Anti-Tag2-XL 665. Assay principle: Anti-tag1-Eu^3+ is the HTRF donor, and Anti-Tag2-XL 665 is the HTRF acceptor. When Tag 1-PD-L1 and Tag 2-PD-1 interact, the added HTRF donor and the acceptor are close to each other. After the donor receives the excitation energy, it transfers part of the energy to the acceptor, thus producing 665 nm emission signal. When the compound is added to block the PD1/PD-L1 interaction, only 620 nm emission light was detected. The inhibitory effect of the compound was determined by analyzing the ratio of 665 nm/620 nm. Tag 1-PD-L1 was diluted with Diluent buffer (cat #62DLBDDF) to a working concentration of 10 nM, Tag 2-PD-1 was diluted with Diluent buffer to a working concentration of 500 nM, and Anti-Tag1-Eu^3+ was diluted with detection buffer (cat #62DB1FDG) by 1:100, Anti-Tag2-XL 665 was diluted with detection buffer by 1:20, and the test compound was diluted with Diluent buffer to a final concentration of 2×. In a 384-well plate, 2 μL of compound was added to each well, and then 4 μL of Tag 1-PD-L1, 4 μL of Tag 2-PD-1 were added and incubated at room temperature for 15 minutes. 5 μL Anti-Tag1-Eu^3+ and 5 μL Anti-Tag2-XL 665 were added and incubated overnight at room temperature, and detected with BioTek Synergy™ Neo2 Multifunctional Microplate Reader to obtain the ratio of 665 nm/620 nm. The IC50 curve was fitted by GraphPad Prism 5.02.

Sequence of PD-L1 (Q9NZQ7 19-238): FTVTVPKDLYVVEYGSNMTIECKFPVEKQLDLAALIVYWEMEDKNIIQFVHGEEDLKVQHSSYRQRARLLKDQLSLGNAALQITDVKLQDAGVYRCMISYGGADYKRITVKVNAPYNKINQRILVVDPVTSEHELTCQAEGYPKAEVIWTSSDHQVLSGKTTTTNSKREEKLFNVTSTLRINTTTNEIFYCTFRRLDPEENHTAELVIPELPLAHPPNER

In the case of COc1nc(OCc2cccc(-c3cccc(COc4ccc(CN5CCC(CC#N)CC5)c(OC)n4)c3C)c2C)ccc1CN1CCC(CC#N)CC1 [Compound 59], the IC50 is reported as 10 to 100 nM.

In the case of COc1nc(OCc2cccc(-c3cccc(COc4ccc(CN5CCC6(CCC(=O)N6)C5)c(OC)n4)c3C)c2C)ccc1CN1CCC2(CCC(=O)N2)C1 (centres unmarked) [Compound 60], the IC50 is reported as < 10 nM.

For COc1nc(OCc2cccc(-c3cccc(COc4ccc(CN5CC(CC#N)C5)c(OC)n4)c3C)c2C)ccc1CN1CC(CC#N)C1 [Compound 61], the IC50 was 10 to 100 nM.

COc1nc(OCc2cccc(-c3cccc(COc4ccc(CN5CC[C@H](O)C5)c(OC)n4)c3Cl)c2Cl)ccc1CN1CC[C@H](O)C1 [Compound 62] was tested, and the IC50 was < 10 nM.

In the case of COc1nc(OCc2cccc(-c3cccc(COc4ccc(CN5CC(C(N)=O)C5)c(OC)n4)c3C)c2C)ccc1CN1CC(C(N)=O)C1 [Compound 63], the IC50 is reported as < 10 nM.

In the case of COc1nc(OCc2cccc(-c3cccc(COc4ccc(CNC5CCOC5=O)c(OC)n4)c3C)c2C)ccc1CNC1CCOC1=O (centres unmarked) [Compound 64], the IC50 is reported as 10 to 100 nM.

For COc1nc(OCc2cccc(-c3cccc(COc4ccc(CN5CC(O)C(CC#N)C5)c(OC)n4)c3C)c2C)ccc1CN1CC(O)C(CC#N)C1 (centres unmarked) [Compound 65], the IC50 was < 10 nM.

In the case of COc1nc(OCc2cccc(-c3cccc(COc4ccc(CN5C[C@@H](O)C[C@H]5C(=O)O)c(OC)n4)c3F)c2C)ccc1CN1C[C@@H](O)C[C@H]1C(=O)O [Compound 66], the IC50 is reported as < 10 nM.

In the case of COc1nc(OCc2cccc(-c3cccc(COc4ccc(CNC(CCO)C(=O)O)c(OC)n4)c3C)c2C)ccc1CNC(CCO)C(=O)O (centres unmarked) [Compound 67], the IC50 is reported as < 10 nM.

For COc1nc(OCc2cccc(-c3cccc(COc4ccc(CNC(CO)CO)c(OC)n4)c3Cl)c2Cl)ccc1CNC(CO)CO [Compound 68], the IC50 was < 10 nM.

In the case of COc1nc(OCc2cccc(-c3cccc(COc4ccc(CN5CCCCC5C(=O)O)c(OC)n4)c3Cl)c2Cl)ccc1CN1CCCCC1C(=O)O (centres unmarked) [Compound 70], the IC50 is reported as < 10 nM.

With COc1nc(OCc2cccc(-c3cccc(COc4ccc(CN5C[C@H](O)[C@@H](O)C5)c(OC)n4)c3Cl)c2Cl)ccc1CN1C[C@H](O)[C@@H](O)C1 [Compound 71] the IC50 was < 10 nM.

COc1nc(OCc2cccc(-c3cccc(COc4ccc(CN(CCO)CCO)c(OC)n4)c3Cl)c2Cl)ccc1CN(CCO)CCO [Compound 72] was tested, and the IC50 was < 10 nM.

COc1nc(OCc2cccc(-c3cccc(COc4ccc(CNCC(N)=O)c(OC)n4)c3Cl)c2Cl)ccc1CNCC(N)=O [Compound 73] was tested, and the IC50 was < 10 nM.

With COc1nc(OCc2cccc(-c3cccc(COc4ccc(CN5CC(NC(C)=O)C5)c(OC)n4)c3Cl)c2Cl)ccc1CN1CC(NC(C)=O)C1 [Compound 74] the IC50 was < 10 nM.

For COc1nc(OCc2cccc(-c3cccc(COc4ccc(CNCc5nnn[nH]5)c(OC)n4)c3Cl)c2Cl)ccc1CNCc1nnn[nH]1 [Compound 75], the IC50 was < 10 nM.

For COc1nc(OCc2cccc(-c3cccc(COc4ccc(CN5CC(CC(N)=O)C5)c(OC)n4)c3Cl)c2Cl)ccc1CN1CC(CC(N)=O)C1 [Compound 76], the IC50 was < 10 nM.

With CNC(=O)CNCc1ccc(OCc2cccc(-c3cccc(COc4ccc(CNCC(=O)NC)c(OC)n4)c3Cl)c2Cl)nc1OC [Compound 77] the IC50 was < 10 nM.

COc1nc(OCc2cccc(-c3cccc(COc4ccc(CNCCS(N)(=O)=O)c(OC)n4)c3Cl)c2Cl)ccc1CNCCS(N)(=O)=O [Compound 78] was tested, and the IC50 was < 10 nM.

For COc1nc(OCc2cccc(-c3cccc(COc4ccc(CN5C[C@@H](F)C[C@H]5C(=O)O)c(OC)n4)c3Cl)c2Cl)ccc1CN1C[C@@H](F)C[C@H]1C(=O)O [Compound 79], the IC50 was < 10 nM.

CNS(=O)(=O)CCNCc1ccc(OCc2cccc(-c3cccc(COc4ccc(CNCCS(=O)(=O)NC)c(OC)n4)c3Cl)c2Cl)nc1OC [Compound 80] gave an IC50 of 10 to 100 nM.

For COc1nc(OCc2cccc(-c3cccc(COc4ccc(CN5C[C@@H](F)C[C@H]5C(=O)O)c(OC)n4)c3Cl)c2Cl)ccc1CN1CCC(C(F)F)C1 (some centres unmarked) [Compound 81], the IC50 was < 10 nM.

Work on COc1nc(OCc2cccc(-c3cccc(COc4ccc(CNCC(N)C(F)(F)F)c(OC)n4)c3Cl)c2Cl)ccc1CNCC(N)C(F)(F)F (centres unmarked) [Compound 82] yielded an IC50 of 10 to 100 nM.
